Experiment [1] concerns the target T1, OccD1 (formerly OprD) (Pseudomonas aeruginosa, UniProt P32722).
T1 construct: pB22, N-terminal hexa-histidine tag kept in vesicles; expressed in porin-deficient E. coli BL21 omp8; total membrane vesicles (purified protein for liposome swelling)
Format: biochemical. The conditions noted are these: vs 0.25 uM 14C-arginine, 2.5 uM unlabelled compound, 10 mM HEPES pH 7.0, 25 C, 15 min. From the text: competition of radiolabelled uptake in total membrane vesicles on OccD1 (formerly OprD)

For a further experiment, the target named is T2, OccD3 (formerly OpdP) (Pseudomonas aeruginosa, UniProt Q9HVS0).
T2 construct: pB22, N-terminal hexa-histidine tag; expressed in E. coli BL21 omp8, total membrane vesicles
T2 sequence (Q9HVS0 26-484): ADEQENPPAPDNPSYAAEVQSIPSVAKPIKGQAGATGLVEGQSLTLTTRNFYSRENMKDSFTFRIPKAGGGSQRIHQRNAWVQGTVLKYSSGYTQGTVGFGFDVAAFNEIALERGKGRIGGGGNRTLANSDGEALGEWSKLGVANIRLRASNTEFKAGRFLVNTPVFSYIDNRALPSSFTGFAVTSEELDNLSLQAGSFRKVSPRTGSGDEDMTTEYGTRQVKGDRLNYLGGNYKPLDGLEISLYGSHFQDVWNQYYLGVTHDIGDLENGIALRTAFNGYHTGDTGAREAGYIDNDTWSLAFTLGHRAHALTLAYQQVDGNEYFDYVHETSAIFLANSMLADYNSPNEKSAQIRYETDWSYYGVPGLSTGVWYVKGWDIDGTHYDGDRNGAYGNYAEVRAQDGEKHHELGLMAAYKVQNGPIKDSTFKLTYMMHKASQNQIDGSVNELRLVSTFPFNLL
Description: radiolabelled uptake in total membrane vesicles. The class given is biochemical. The conditions noted are these: 0.25 uM 14C-arginine, 15 min, 10 mM HEPES pH 7.0, 25 C; labelled compound.

For a further experiment, the target named is T3, OccD2 (formerly OpdC) (Pseudomonas aeruginosa, UniProt Q9I6X0).
T3 construct: pB22, N-terminal hexa-histidine tag; expressed in E. coli BL21 omp8, total membrane vesicles
T3 sequence (Q9I6X0 23-444): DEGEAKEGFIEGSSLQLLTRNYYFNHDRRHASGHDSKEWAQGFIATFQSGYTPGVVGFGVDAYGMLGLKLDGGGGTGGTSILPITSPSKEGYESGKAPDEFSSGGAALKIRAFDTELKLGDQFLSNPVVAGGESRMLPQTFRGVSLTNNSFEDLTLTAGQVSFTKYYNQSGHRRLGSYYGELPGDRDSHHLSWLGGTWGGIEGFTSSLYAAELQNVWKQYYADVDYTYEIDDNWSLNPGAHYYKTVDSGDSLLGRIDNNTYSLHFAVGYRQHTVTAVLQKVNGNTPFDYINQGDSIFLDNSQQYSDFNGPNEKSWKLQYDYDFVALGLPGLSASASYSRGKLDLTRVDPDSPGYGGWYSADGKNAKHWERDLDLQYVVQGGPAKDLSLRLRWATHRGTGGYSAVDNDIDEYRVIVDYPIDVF
As to the kind of experiment: radiolabelled uptake in total membrane vesicles. Conditions: 0.25 uM 14C-arginine, 15 min, 10 mM HEPES pH 7.0, 25 C; labelled compound. The class given is biochemical.

Experiment [2] concerns the target T1, OccD1 (formerly OprD). Description: competition of arginine uptake in membrane vesicles; liposome swelling. Format: biochemical. The conditions noted are these: 10-fold excess over 0.25 uM 14C-arginine, pH 7.0, 25 C; uptake confirmed by liposome swelling.
The next experiment deals with T4, OccK2 (Pseudomonas aeruginosa, UniProt Q9I6P8).
T4 construct: gene PA0240; pB22, N-terminal hexa-histidine tag; expressed in E. coli BL21 omp8, total membrane vesicles
T4 sequence (Q9I6P8 25-421): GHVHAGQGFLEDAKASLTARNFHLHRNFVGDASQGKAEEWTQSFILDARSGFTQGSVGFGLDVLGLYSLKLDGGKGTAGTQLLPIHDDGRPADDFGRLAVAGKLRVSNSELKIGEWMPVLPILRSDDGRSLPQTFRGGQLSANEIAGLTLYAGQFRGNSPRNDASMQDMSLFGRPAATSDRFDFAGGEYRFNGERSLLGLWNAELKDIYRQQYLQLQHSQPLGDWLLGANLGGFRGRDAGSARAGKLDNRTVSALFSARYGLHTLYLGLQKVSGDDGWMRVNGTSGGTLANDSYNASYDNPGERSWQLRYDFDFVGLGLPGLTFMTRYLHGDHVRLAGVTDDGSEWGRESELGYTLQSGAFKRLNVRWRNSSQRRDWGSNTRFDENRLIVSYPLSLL
As to the kind of experiment: competition of radiolabelled uptake in total membrane vesicles. The class given is biochemical. Conditions: vs 0.5 uM 3H-glucuronate, 5 uM unlabelled compound, 10 mM HEPES pH 7.0, 25 C, 10 min. From the text: competition of radiolabelled uptake in total membrane vesicles on OccK2

A further experiment has as its target T5, OccK1 (formerly OpdK) (Pseudomonas aeruginosa, UniProt Q9HUR5).
T5 construct: pB22, N-terminal hexa-histidine tag; expressed in E. coli BL21 omp8, total membrane vesicles; purified protein for crystals
T5 sequence (Q9HUR5 28-417): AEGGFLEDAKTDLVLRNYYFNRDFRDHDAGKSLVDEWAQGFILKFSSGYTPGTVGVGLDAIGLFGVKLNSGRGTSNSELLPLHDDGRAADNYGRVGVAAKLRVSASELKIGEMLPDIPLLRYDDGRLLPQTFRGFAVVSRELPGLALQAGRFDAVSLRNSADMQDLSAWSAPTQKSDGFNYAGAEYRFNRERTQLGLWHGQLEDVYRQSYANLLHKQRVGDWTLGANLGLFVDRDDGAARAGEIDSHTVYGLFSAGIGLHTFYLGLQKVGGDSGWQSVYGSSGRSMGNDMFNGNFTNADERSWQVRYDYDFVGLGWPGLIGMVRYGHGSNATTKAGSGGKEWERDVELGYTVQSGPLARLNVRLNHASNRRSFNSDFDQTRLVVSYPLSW
The description is as above. Format: biochemical. Conditions: vs 0.5 uM 3H-benzoate, 5 uM unlabelled compound, 10 mM HEPES pH 7.0, 25 C, 10 min. From the text:
competition of radiolabelled uptake in total membrane vesicles on OccK1 (formerly OpdK)

In the next experiment the target is T6, OccK7 (Pseudomonas aeruginosa, UniProt Q9I4U9).
T6 construct: gene PA1025; pB22, N-terminal hexa-histidine tag; expressed in E. coli BL21 omp8, total membrane vesicles
T6 sequence (Q9I4U9 23-416): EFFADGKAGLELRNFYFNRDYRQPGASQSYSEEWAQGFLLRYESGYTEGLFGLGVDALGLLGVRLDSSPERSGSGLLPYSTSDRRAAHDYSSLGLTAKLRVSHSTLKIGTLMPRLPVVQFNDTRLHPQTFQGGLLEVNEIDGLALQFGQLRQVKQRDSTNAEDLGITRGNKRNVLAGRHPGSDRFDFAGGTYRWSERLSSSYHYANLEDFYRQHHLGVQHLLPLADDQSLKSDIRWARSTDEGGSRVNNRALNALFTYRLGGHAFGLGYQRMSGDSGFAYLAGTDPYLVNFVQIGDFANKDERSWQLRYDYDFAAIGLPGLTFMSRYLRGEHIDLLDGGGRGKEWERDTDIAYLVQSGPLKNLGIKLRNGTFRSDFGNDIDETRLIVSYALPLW
Description: competition of benzoate uptake in membrane vesicles. Format: biochemical. The conditions noted are these: 10-fold excess over radiolabelled benzoate, pH 7.0.

The target in experiment [3] is T1, OccD1 (formerly OprD). As to the kind of experiment: competition of arginine uptake in membrane vesicles. The class given is biochemical. Conditions: 10-fold excess over 0.25 uM 14C-arginine, pH 7.0, 25 C.
In experiment [4] the target is T7, OccK3 (Pseudomonas aeruginosa, UniProt Q9I202).
T7 construct: gene opdO; pB22, N-terminal hexa-histidine tag; expressed in E. coli BL21 omp8, total membrane vesicles; purified protein for liposome swelling
T7 sequence (Q9I202 26-409): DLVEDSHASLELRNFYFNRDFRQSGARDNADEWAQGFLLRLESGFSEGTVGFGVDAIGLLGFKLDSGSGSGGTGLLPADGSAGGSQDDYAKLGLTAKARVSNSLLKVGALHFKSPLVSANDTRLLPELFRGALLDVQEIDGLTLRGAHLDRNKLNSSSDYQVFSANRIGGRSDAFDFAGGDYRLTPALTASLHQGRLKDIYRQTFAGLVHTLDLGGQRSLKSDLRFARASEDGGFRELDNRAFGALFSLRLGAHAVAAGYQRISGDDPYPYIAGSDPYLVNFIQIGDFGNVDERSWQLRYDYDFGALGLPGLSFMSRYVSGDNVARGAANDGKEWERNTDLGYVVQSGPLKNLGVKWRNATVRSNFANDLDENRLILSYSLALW
Description: radiolabelled uptake in total membrane vesicles. Conditions: 0.5 uM 3H-pyroglutamate, 15 min, 10 mM HEPES pH 7.0, 25 C; labelled compound. The class given is biochemical.

In the next experiment the target is OccD1 (P. aeruginosa) (UniProt P32722).
The target of experiment [5] is T7, OccK3. As to the kind of experiment: competition of pyroglutamate uptake in membrane vesicles; liposome swelling. Format: biochemical. The conditions noted are these: 10-fold excess over radiolabelled pyroglutamate, pH 7.0; uptake confirmed by liposome swelling.
Another experiment addresses T8, OccK4 (Pseudomonas aeruginosa, UniProt Q9HWP4).
T8 construct: gene PA4137; pB22, N-terminal hexa-histidine tag; expressed in E. coli BL21 omp8, total membrane vesicles
As to the kind of experiment: radiolabelled uptake in total membrane vesicles. The class given is biochemical. Conditions: 10 uM 14C-phenylacetate, 45 min; very low specific activity; labelled compound.

Where two headings read alike, the source gives them in different places.

T1 sequence (P32722 24-443): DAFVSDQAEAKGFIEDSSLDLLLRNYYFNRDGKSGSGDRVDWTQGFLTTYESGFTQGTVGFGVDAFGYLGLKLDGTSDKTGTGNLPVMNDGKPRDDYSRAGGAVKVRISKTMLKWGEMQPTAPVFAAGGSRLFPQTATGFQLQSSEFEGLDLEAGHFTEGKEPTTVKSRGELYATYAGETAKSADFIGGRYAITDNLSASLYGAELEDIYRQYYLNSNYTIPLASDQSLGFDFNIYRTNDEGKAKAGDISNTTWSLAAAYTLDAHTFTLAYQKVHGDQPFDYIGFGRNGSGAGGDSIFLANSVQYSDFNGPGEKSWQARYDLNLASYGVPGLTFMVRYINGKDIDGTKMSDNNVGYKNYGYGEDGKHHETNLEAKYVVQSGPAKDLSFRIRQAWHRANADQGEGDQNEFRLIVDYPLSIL
T8 sequence (Q9HWP4 entry or part of it): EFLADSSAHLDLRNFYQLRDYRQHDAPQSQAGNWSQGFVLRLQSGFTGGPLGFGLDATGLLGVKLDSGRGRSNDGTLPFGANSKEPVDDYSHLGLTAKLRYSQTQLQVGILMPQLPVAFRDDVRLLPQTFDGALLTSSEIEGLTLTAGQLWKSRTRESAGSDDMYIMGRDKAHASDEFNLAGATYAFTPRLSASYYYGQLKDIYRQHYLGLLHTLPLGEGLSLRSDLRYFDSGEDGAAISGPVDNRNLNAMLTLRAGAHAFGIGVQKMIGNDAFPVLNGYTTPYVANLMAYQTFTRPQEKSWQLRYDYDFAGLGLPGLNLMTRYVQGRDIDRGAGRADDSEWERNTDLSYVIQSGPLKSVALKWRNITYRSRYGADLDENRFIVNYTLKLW
Chain of OccD1 (P. aeruginosa) (P32722 24-443): as the sequence (P32722 24-443) above

`N=C(N)NCCC[C@H](N)C(=O)O` [Arginine]: the OccD1 on OccD1 (formerly OprD) [1] (self-competition) is on record as 2±1%. Further, the “radiolabelled uptake in total membrane vesicles” value at OccD3 (formerly OpdP) is “The efficient arginine uptake mediated by OccD3 is noteworthy”; on OccD2 (formerly OpdC), “OccD2 and OccD3, while efficient in arginine uptake”. For `C[C@@H](O)[C@H]1C(=O)N2C(C(=O)O)=C(SCCN=CN)C[C@H]12` [imipenem], the “% uptake remaining in 10-fold excess” value at OccD1 (formerly OprD) [2] is “For OccD1, inhibition of arginine uptake is caused only by imipenem and meropenem”. Take `O=C(O)[C@H]1OC(O)[C@H](O)[C@@H](O)[C@@H]1O` (some centres unmarked) [glucuronate]: the “% radiolabelled uptake remaining” value at OccK2 (self-competition) was 3±3%. For `NCCC[C@H](N)C(=O)O` [Ornithine], at OccD1 (formerly OprD) [1], the OccD1 is 1±2%. As to `O=C(O)c1ccc([N+](=O)[O-])cc1` [4-nitrobenzoate], the OccK1 on OccK1 (formerly OpdK) was found to be 16±3%.

In the case of `C[C@@H](O)[C@H]1C(=O)N2C(C(=O)O)=C(S[C@@H]3CN[C@H](C(=O)N(C)C)C3)[C@H](C)[C@H]12` [meropenem], the “% uptake remaining in 10-fold excess” value at OccK7 was “OccK7-mediated transport is lowered very efficiently by meropenem”; on OccD1 (formerly OprD) [3] it was “For OccD1, inhibition of arginine uptake is caused only by imipenem and meropenem”. For the compound `O=C1CC[C@@H](C(=O)O)N1` [pyroglutamate], the “radiolabelled uptake in total membrane vesicles” value on OccK3 [4] is given as “the channel that is most efficient in pyroglutamate uptake (OccK3)”. Moreover, at OccK2, the OccK2 is 25±2%. The OccK1 at OccK1 (formerly OpdK) stood at 15±1%.

Consider `N[C@@H](Cc1cnc[nH]1)C(=O)O` [Histidine], for which the OccD1 on OccD1 (formerly OprD) [1] is recorded as 12±2%. The compound `NCCCC[C@H](N)C(=O)O` [Lysine] showed an OccD1 at OccD1 (formerly OprD) [1] of 3±1%. In the case of Arg-Arg dipeptide, the uptake of radiolabeled arginine by OccD1 in E. coli BL21 omp8 total membrane vesicles in the presence of a 10-fold excess of the unlabeled compound, as a percentage of uptake without it with OccD1 (P. aeruginosa) is 40%. Take `CO/N=C(\C(=O)N[C@@H]1C(=O)N2C(C(=O)O)=C(COC(C)=O)CS[C@H]12)c1csc(N)n1` [cefotaxime]: the “% uptake remaining in 10-fold excess” value at OccK3 [5] is “OccK3-mediated transport is affected only with the cephalosporin cefotaxime”. As to `O=C(O)Cc1ccccc1` [phenylacetate], the “radiolabelled uptake in total membrane vesicles” value at OccK4 is listed as “OccK4 was indeed the most efficient phenylacetate uptake channel of the proteins tested”.

`O=C(O)c1ccccc1` [benzoate] had an OccK2 on OccK2 of 20±6%. Further, the OccK1 on OccK1 (formerly OpdK) (self-competition, error printed as '+') is 1+3. Take `CCCCCC(=O)O` [caproate]: at OccK1 (formerly OpdK), the OccK1 amounted to 20±5%.

(Values after paper PMC3260308, “Substrate Specificity within a Family of Outer Membrane Carboxylate Channels” (PLoS Biology, 2012).)
